B1: TcTS2-His6: taxadiene synthase from Taxus chinensis var. mairei, amino acid sequence SEQ ID NO: 1 (protein)
chain: MSSSPTKLATENANAVAESNLIPRLSANYHGDLWHHGVIQTLQTPYQESSSYQERAEELIVKIKDMFKAVEEGAISPSAYDTAWVARVPDGSEKPRFPQALNWLLHNQLQDGSWGLESHFMLSDRLLSTLNSVISLLVWKTGQQQVEQGTLFITENLKLLEGEDELPPDFEIIFPALLQKAKALGMSLPDHDLPFIKSLSVAREARLASYTDNNIPASMLNALEGLEEVIDWDKIMRFQMPCLYSIDLLERLSLVDNIEHLGIGRHFKQEIKVALDYVYRYWSERGIGLGRDSLIPDLNTTALGLRTLRAHGYNVSSEVLNNFKDENGRFFSSLGQTHVELRSMVNLLRASDLAFPDEPLMDDAKIFAEAYLRDALATRISTNTKLFKEIDYAVEYPWHMSIPRLEARSYIDVYDDDYTWQNKTLYRMSNLSNAYCLELAKLDFNIVQSLHQEELKLLTRWWKESGMADINFTRHRVAEVYFSSATFEPEYSSTRIAFTKIGCLQVLFDDMADIFATLDELRDFTEGVKRWDTSLIHKLPDCMQTCFRVWFNLMEEVNNDVSNVQGRDMLNHIRKPWELYFNCYVQEREWLDAGYIPTLEEYLKTYSISVGLGPCTLQPILLMGDIVKDDVVEKVHYPSNLFELVSLSWRLTNDTKTYQAEKARGQQASGIACYMKDNPGSTEEDAIKYICGVVDRALKEACFEYFKPADDVPMSCKSFIFNLRLCVQIFYKFIDGYGIANEEIKDYIRKVYIEPIQV
modifications: C-terminal His6 tag; Amino acid sequence of Taxadiene Synthase TcTS2

Tests used:
[1] = tested on: Taxus chinensis var. mairei cell line 211; experiment: Content changes of baccatin III and paclitaxel for different treatment times of MeJA (LC-MS); assay type: cell-based; conditions: 100 μM MeJA
Protocol: (§1) Taxus chinensis var. mairei cell line 211 were divided into two groups: the experimental group (MeJA+) was soaked with 100 μM methyl jasmonate; the control group (MeJA−) was soaked with 0.05% ethanol solution. The experiments of the two groups were carried out at the same time, and the samples were collected after 0 h, 2 h, 3 h and 4 h respectively, for the analysis of the expression pattern of TcTSs gene and the content of baccatin III and paclitaxel, with three biological replicates.
The metabolites were extracted by the modified Wolfender method. The specific steps include: weighing 100 mg of lyophilized cell powder to place it in a 2 ml centrifuge tube, adding 1.5 ml of extraction buffer (methanol:water=80:20, v/v) and vortexing to suspend it, containing 500 ng/ml dexamethasone as the internal standard, after ultrasonic extraction for 30 min, centrifuging at 14,000 g for 15 min; the supernatant was centrifuged and dried in a vacuum concentrator (LABCONCO), and finally the sample was resuspended in 200 μL methanol solvent (80:20, v/v) for LCMS analysis. Samples were analyzed by LC-MS by using an ACQUITY UPLC I-Class/AB SCIEX (Waters) instrument.
The separation column was Waters (2.1×50 mm; ACQUITY UPLC™ Waters XselectHSS T3); the injection volume was 10 μL, and the flow rate was 0.2 mL/min.
The mobile phase composition: A was 0.1% formic acid methanol; B was 0.1% formic acid water.
The LC separation procedure was as follows: equilibrating with 40% A for 2 min, followed by gradient elution for 10 min to 100% B, maintaining for 2 min, and then returning to 40% A equilibration for 1 min. ESI ion source, positive ion mode. Data acquisition and processing were performed on AB SCIEXAnalyst 1.6.3 software (Applied Biosystems).

TcTS2 gene = experiment: Expression pattern of TcTS2 gene under MeJA stress (qPCR); assay type: cell-based, Taxus chinensis var. mairei; conditions: 100 μM MeJA, 4 h, 2^−ΔΔCt, reference TcACTIN1
Protocol: as §1
(§2) EASYspin Plant Total RNA Extraction Kit (Aidlab, Beijing) was used to extract and collect the total RNA of the samples with different treatment times. 1 μg of total RNA of different samples was respectively taken for the synthesis of the first-strand cDNA, using it as the template for real-time fluorescence quantitative PCR. Kit Hifair® III 1st Strand cDNA Synthesis (YEASEN, China) and qPCR fluorescent dye kit Hieff® qPCR SYBR® Green Master Mix (Low Rox Plus) (commercial reagents, purchased from YEASEN, China) were used for the first-strand cDNA synthesis. qPCR experiments were performed on the QuantStudio™ 3 system with 2 technical replicates and 3 biological replicates. Actin1 (TcACTIN1) gene of Taxus chinensis var. mairei was used as an internal reference gene, and the relative expression of TcTSs genes was calculated by using the 2^−ΔΔCt method.

TcTS1 gene = experiment: Expression pattern of TcTS1 gene under MeJA stress (qPCR); assay type: cell-based, Taxus chinensis var. mairei; conditions: 100 μM MeJA, 0-4 h, 2^−ΔΔCt, reference TcACTIN1
Protocol: as §1, §2

[2] = In vitro activity of TcTSs-His6 (GC-MS of enzymatic reaction product); assay type: biochemical, Taxus chinensis var. mairei; conditions: 100 μg purified protein, 100 μM GGPP, 32° C., 2 h
Protocol: The in vitro enzymatic reaction system was 500 μL, containing 100 μg purified protein, 100 μM GGPP (Sigma-Aldrich) and enzyme reaction buffer (25 mM, pH 8.5, 10% glycerol, 5 mM DTT, 5 mM ascorbate, 5 mM sodium metabisulfite and 1 mM MgCl2), the reaction mixture was covered with 500 μL of pentane (Macklin, GC-MS grade) and reacted in a 32° C. water bath for 2 h, vortexing for 2 min, centrifuging at 5000 rpm for 10 min; the pentane layer was taken out, putting into 2 mL of the sample, concentrating at low temperature by using a nitrogen blower; the product was analyzed by gas chromatography mass spectrometry (GC-MS) instrument.
The control group was the reaction product of purified recombinant protein TcTSs-His6 after being boiled at 100° C. for 10 min. The GC-MS instrument was Agilent 7890B/7000C (Agilent Technologies, Waldbronn, USA), mass spectrometry detector parameters: 70 eV, helium flow rate 1.2 mL/min, chromatographic column Agilent HP-5 MS (5% phenylmethyl silica, 30 m×250 μm inner diameter, 0.25 μm film thickness), the injection volume is 1-5 μL; the temperature program of the column oven is as follows: 45° C. for 1 min, then 10° C./min gradient increase to 250° C., and remaining at 250° C. for 5 min. […]

[3] = Kinetic constants of TcTSs-His6 ([1-3H]-GGPP, liquid scintillation counting); assay type: biochemical, Taxus chinensis var. mairei
Protocol: Kinetic parameter detection: standard enzymatic reaction with a total volume of 100 μL, containing enzyme reaction buffer (25 mM, pH 8.5, 10% glycerol, 5 mM DTT, 5 mM ascorbate, 5 mM sodium metabisulfite and 1 mM MgCl2), 34 μg (TcTS1-His6) or 18 μg (TcTS2-His6) recombinant protein, and […] concentrations of GGPP (0.2 μM, 0.5 μM, 1 μM, 2.5 μM, 5 μM, 10 μM, 25 μM, 50 μM) mixed with […] substrate (American Radiolabeled Chemicals, Inc, 30 Ci/mM).
Labeled [1-3H]-GGPP was diluted 400-fold with unlabeled GGPP (Sigma, 1 mg/mL). The reaction mixture was reacted at 32° C. for 30 min, then quenching with 100 μL of stop buffer (containing IM EDTA and 4M NaOH) for 10 min; the reaction mixture was extracted with 800 μL of n-hexane (vortexing for 2 min, centrifuging at 12,000 rpm for 10 min); 400 μL of n-hexane extract was taken to add into 2 mL of liquid scintillation cocktail to mix well. The total radioactivity of the reaction products was determined by using a liquid scintillation counter (Tri-Carb 2910TR, Perkin Elmer). Kinetic constants were calculated by nonlinear regression fitting of Michaelis-Menten equation through Origin 8.6 software.

[4] = substrate GGPP, 32° C., 30 min, Michaelis-Menten fit

Molecule	increased fold of baccatin III as compared to the control group ([1]; 2 h)	increased fold of paclitaxel as compared to the control group ([1]; 2 h)	increase fold of baccatin III ([1]; 4 h)	increase fold of paclitaxel ([1]; 4 h)	induction fold of TcTS2 expression relative to 0 h (TcTS2 gene)	expression of TcTS1 under MeJA stress (TcTS1 gene)	main products taxa-4 (5), 11 (12)-diene (accounting for) [2]	secondary products taxa-4 (20), 11 (12)-diene (accounting for) [2]	catalytic efficiency relative to TcTS1-His6 (Kcat value) ([3]; from Kcat values)	Ka [3, 4]	Kcat [3, 4]
CC/C=C\CC1C(=O)CCC1CC(=O)OC (centres unmarked) [MeJA, methyl jasmonate]	1.48 times	9.53 times	7.01 times	12.91 times	7	up-regulated					
B1							94%	4%	3 times	8.6 ± 1.5 pM/µg/min	0.00901 s⁻¹

Source: patent US12104190B2, “Taxadiene synthase TcTS2, encoding nucleotide sequence and use thereof” (AGRICULTURAL GENOMICS INSTITUTE AT SHENZHEN, CHINESE …, priority 2020, dated 2024)
